Results reported in PubChem BioAssay AID435010 (Broad Institute, 2010).
Inconclusive results are not listed. Calls of active or inactive are those of the source. No rule for the calls is given here.

target: Protein RecA (Mycobacterium tuberculosis (strain ATCC 25618 / H37Rv)) (UniProt P9WHJ3); test: RecA intein splicing inhibitors, Mycobacterium tuberculosis, cell free fluorescence, confirmatory dose response (AID 435010)
Sequence (P9WHJ3 whole entry, looked up): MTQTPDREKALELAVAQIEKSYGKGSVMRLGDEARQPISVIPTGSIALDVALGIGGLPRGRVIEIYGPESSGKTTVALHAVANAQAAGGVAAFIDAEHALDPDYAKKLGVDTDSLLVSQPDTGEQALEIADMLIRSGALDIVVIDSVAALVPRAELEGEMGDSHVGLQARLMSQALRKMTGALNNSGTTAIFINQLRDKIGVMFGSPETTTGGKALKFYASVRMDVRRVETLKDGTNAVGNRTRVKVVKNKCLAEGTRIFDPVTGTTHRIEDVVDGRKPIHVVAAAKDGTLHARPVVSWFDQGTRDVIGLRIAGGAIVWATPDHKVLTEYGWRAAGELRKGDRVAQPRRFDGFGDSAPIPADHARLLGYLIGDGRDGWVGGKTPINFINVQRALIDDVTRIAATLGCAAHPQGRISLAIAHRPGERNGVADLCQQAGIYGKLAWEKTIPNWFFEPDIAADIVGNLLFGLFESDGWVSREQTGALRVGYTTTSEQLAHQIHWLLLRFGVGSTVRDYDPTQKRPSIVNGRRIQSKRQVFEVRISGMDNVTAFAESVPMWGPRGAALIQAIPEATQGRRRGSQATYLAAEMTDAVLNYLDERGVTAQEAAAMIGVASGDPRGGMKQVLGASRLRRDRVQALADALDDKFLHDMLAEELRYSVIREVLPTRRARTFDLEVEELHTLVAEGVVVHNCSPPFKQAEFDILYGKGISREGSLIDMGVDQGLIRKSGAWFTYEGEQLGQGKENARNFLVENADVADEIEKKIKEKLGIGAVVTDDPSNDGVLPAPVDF

Which EC50 does the source give for `CC1=NN(Cc2ccccc2)C(=O)/C1=C\c1ccc(N(C)C)cc1` here?
The EC50 was > 38 µM (inactive).

For `O=C(CCCN1C(=O)/C(=C/c2ccccc2)SC1=S)Nc1ccc(O)cc1`, which EC50 is on record?
Its EC50 is > 38 µM (inactive).

Which EC50 does the source give for `N[C@@H]1CCCC[C@H]1N.O=C(O)C(=O)O.[Pt]` here?
Its EC50 is 32.5 µM.
